Data reported in patent EP4111863A1, “PHOSPHORUS USE EFFICIENCY ENHANCERS AS PLANT GROWTH PROMOTORS” (EuroChem Antwerpen, priority 2021, dated 2023).

System: SPX1
Experiment: Chemical activity assessment: SPX1 phosphate starvation biomarker, pSPX1::GUS reporter line, GUS stained area
Format: in vivo, Arabidopsis thaliana
Conditions: Table 3; 50 µM compound, low phosphate modMS liquid medium, 7 days after germination; low phosphate control average of the same plate
Procedure: All Arabidopsis plant experiments were performed using the Arabidopsis thaliana Columbia-0 background. The Arabidopsis pSPX1::GUS line is described in the […] 2008, 54: 965-975. For rice, the cultivar Nipponbare was used. For maize, the cultivars DKC 2931 and B104 were used for regular pot experiments and sand-based pot experiments, respectively. For soybean, the cultivar Primus was used. […] The medium was solidified due to the addition of 0,6% Gelrite, unless stated otherwise. In case of vertical plates (root length and root hair measurements), the medium was supplied with 0.5% of sucrose and 1 µM (low phosphate, 1 µM KH2PO4, 9.9 mM KCI), 10 µM (low phosphate 10 µM KH2PO4, 9.9 mM KCI) or 1.25 mM KH2PO4 (high phosphate). Arabidopsis seeds were stratified for 2 days at 4 °C before germination. Seedlings were germinated in climate-controlled growth chambers at 22 °C under continuous light (100 µmol m^-2 s^-1). Husked rice seeds were germinated on wetted Whatman paper for 2 days at 37 °C and then transferred to Sterivent boxes or square Petri dishes with solid medium. Maize and soybean seeds were wetted 24 hours at room temperature prior to sowing in pots.
For the chemical activity assessment 3 to 8 seeds per well of Arabidopsis pSPX1::GUS line were sown in 96-well plates containing 150 µl of low phosphate modMS liquid medium containing 1% of sucrose. Compounds were added in 50 µM concentration, starting from a 5 mM stock of compounds solved in DMSO. Different chemical substances were separately added to different wells. Per plate, 16 control wells were used, 8 containing only the low phosphate medium and 1% DMSO, and 8 containing high phosphate medium and 1% DMSO. 7 days after germination, plates were scanned using a flatbed scanner (EPSON Expression 11000XL) and analyzed for leaf size. After scanning, the growth medium was replaced by GUS staining solution (see Plant Mol. Biol. Rep. 1994, 12: 37-42 for details) and incubated for 1.5 hours at 37 °C. The plates were scanned a second time and analyzed for GUS signal area. Measurements of both leaf area and GUS signal area were conducted by filtering out and measure the green and blue signal, respectively using ImageJ software. If the green leaf area was 50% or less than the control, samples were omitted. Additionally, all results were visually screened for leaf size and GUS signal.

Row | Compound | GUS (SPX1) stained area normalized to the number of seeds (pixels)
1 | O=C(c1ccc(-c2cc(Cl)ccc2Cl)o1)N1CCOCC1 | 16
2 | CCC1CN(Cn2nc3ccccn3c2=S)CCO1 (stereo not drawn) | 3
3 | O=S(=O)(CCN1CCOC2CCCCC21)c1cc(Cl)ccc1Cl (stereo not drawn) | 9
4 | O=C(Nc1ccc(F)cn1)N1CCOC(c2nccs2)C1 (stereo not drawn) | 24
5 | CCCCn1c(N)c(C(=O)NCCN2CCOCC2)c2nc3ccccc3nc21 | 20
6 | CC(=O)Nc1nc(CN2CC(C)OC(c3ccsc3)C2)cs1 (stereo not drawn) | 20
7 | Cc1csc(C2CN(Cc3nc(-c4ccccc4)no3)CCO2)n1 (stereo not drawn) | 0
8 | FC(F)(F)c1ccnc(N2CCOC(c3nccs3)C2)n1 (stereo not drawn) | 0
9 | CC(c1nnc(-c2cccs2)o1)N1CCOC(c2nccs2)C1 (stereo not drawn) | 453
10 | O=C(NCc1ccccc1CS(=O)(=O)N1CCOCC1)c1ccc([N+](=O)[O-])cc1 | 7
11 | C1CCC(Sc2nnc(N3CCOCC3)s2)C1 | 35
12 | O=C1c2cccc3cccc(c23)C(=O)N1CCN1CCOCC1 | 29
13 | CCN(CC)S(=O)(=O)c1ccc(N2CCOCC2)c(NC(=O)c2ccccc2OC)c1 | 7
14 | c1ccc2sc(CN3CCOC(c4nccs4)C3)nc2c1 (stereo not drawn) | 49
15 | O=C(Nc1cccc(NC(=O)N2CCOC3(CCC3)C2)c1)C1CC1 | 11
16 | CCC(CC)C(CNC(=O)Nc1ccccc1F)N1CCOCC1 (stereo not drawn) | 37
17 | O=C(CSc1ccc(F)cc1)Nc1ccc(Cl)c(S(=O)(=O)N2CCOCC2)c1 | 5
18 | Fc1ccc(C2CN(Cc3nnsc3Cl)CCO2)cc1 (stereo not drawn) | 3
19 | Cc1ccc2cccc(OC(=O)N3CCOCC3)c2n1 | 21
20 | CCC1CN(C(=O)CCc2nc(-c3cccs3)no2)CCO1 (stereo not drawn) | 23
21 | O=C(CCc1ccccc1)Nc1c(C(=O)N2CCOCC2)oc2ccccc12 | 28
22 | O=C(COn1nnc2ccc(Cl)cc21)Nc1cc(S(=O)(=O)N2CCOCC2)ccc1Cl | 7
23 | Cn1cccc1C1COCCN1CCOCC1CC1 (stereo not drawn) | 6
24 | CCC1CN(Cc2cc(=O)n3cc(Cl)ccc3n2)CCO1 (stereo not drawn) | 47
25 | CC1CN(CC(=O)Nc2ccccc2C(=O)NC2CCCC2)CC(C)O1 (stereo not drawn) | 21

Row | Compound | GUS (SPX1) stained area normalized to the number of seeds (pixels)
26 | O=C(NC1CCSc2ccc(Cl)cc21)c1ccc(N2CCOCC2)c([N+](=O)[O-])c1 (stereo not drawn) | 27
27 | O=C(c1cc(-c2ccccc2)nc2c1cnn2Cc1cccc(F)c1)N1CCOCC1 | 14
28 | Cc1nc(C(C)(C)NCC(=O)N2CC(C)OC(C)C2)sc1C (stereo not drawn) | 34
29 | Cc1ccc(CS(=O)(=O)c2nnc(N3CCOCC3)n2C)cc1 | 4
30 | CC(C)(C)Nc1nn(CN2CCOCC2)c(=S)s1 | 7
31 | Cc1nc2c(cc(Oc3ccc(S(=O)(=O)N4CCOCC4)cn3)c3ccsc32)s1 | 26
32 | O=C1CCCCCN1CCCNC(=O)N1CCOC2(CCCCCC2)C1 | 40
33 | COC(=O)c1ccc(N2CCOC(c3ccc(C)o3)C2)nc1C (stereo not drawn) | 24
34 | COc1cccc(C(c2c(-c3ccccc3)n(O)c3ccccc23)N2CCOCC2)c1 (stereo not drawn) | 54
35 | Cc1cc(C)c(C)c(OC(=O)N2CCOCC2)c1 | 17
36 | Cc1cc(C)n(CC2CN(CC(=O)N(C)c3nccs3)CCO2)n1 (stereo not drawn) | 15
37 | CC1CCCN(C(C)CNS(=O)(=O)N2CCOCC2)C1 (stereo not drawn) | 46
38 | CC(C)c1nc(C2COCCN2c2ccnc(-c3ccccc3)n2)no1 (stereo not drawn) | 21
39 | CC1CN(C(=O)CCc2nc(-c3ccsc3)no2)C(C)CO1 (stereo not drawn) | 1
40 | O=C1NC(c2cc3ccccc3nc2N2CCOCC2)Nc2ccccc21 (stereo not drawn) | 14
41 | CC1COCCN1C(=O)CCc1nc(-c2cccs2)no1 (stereo not drawn) | 17
42 | Cc1ccc(C2COCCN2C(=O)Nc2nnc(C(F)F)s2)o1 (stereo not drawn) | 26
43 | c1cc2c(cc1C1CCCN1c1nc(CN3CCOCC3)nc3sc4c(c13)CCC4)OCCO2 (stereo not drawn) | 1
44 | O=S(=O)(c1cccc(-c2nnc(SCc3ccccc3)o2)c1)N1CCOCC1 | 43
45 | CC1CN(Cc2nc(-c3ccc(Br)s3)no2)CCO1 (stereo not drawn) | 1
46 | CC1(C)C(NC(=O)Nc2cc(Cl)ccc2N2CCOCC2)C2CCOC21 (stereo not drawn) | 28
47 | CC(NC(=O)N1CCOC(CO)C1)c1ccc(Br)cc1 (stereo not drawn) | 129
48 | Cc1csc(C2COCCN2C(=O)NC2CCc3ccccc32)n1 (stereo not drawn) | 12
49 | CCC(CC)C(C(=O)NCc1cccc(C)c1)N1CCOCC1 (stereo not drawn) | 11
50 | CC1CN(C(=O)c2nn(-c3ccccc3)c(=O)c3ccccc23)CC(C)O1 (stereo not drawn) | 10

Row | Compound | GUS (SPX1) stained area normalized to the number of seeds (pixels)
51 | COCCn1c(SCC(=O)N2CCOCC2)nnc1-c1ccncc1 | 9
52 | CCn1c(Sc2nnnn2-c2ccccc2)nc2cc(S(=O)(=O)N3CCOCC3)ccc21 | 14
53 | Cc1cccc(-n2c(SCC3COc4ccccc4O3)nnc2N2CCOCC2)c1 (stereo not drawn) | 26
54 | Cn1c(Cl)cnc1CN1CCOC(c2ccc(Cl)cc2)C1 (stereo not drawn) | 17
55 | CCCn1nc(C(=O)N2CC(C)OCC2C)ccc1=O (stereo not drawn) | 2
56 | CCc1cc2c(=O)n(CC(=O)N3CCOC(C)C3)cnc2s1 (stereo not drawn) | 0
57 | CCC1COCCN1C(=O)Nc1nnc(C(F)(F)F)s1 (stereo not drawn) | 21
58 | COC(=O)C1CN(c2ccc(C(F)(F)F)cn2)C[C@@H](C)O1 (stereo partly drawn) | 1
59 | CCc1nsc(N2CCOC(C)C2)n1 (stereo not drawn) | 44
60 | CC1CN(C(=O)c2cc(Cl)c(Cl)n2C)CCO1 (stereo not drawn) | 14
61 | CC1CN(CC(=O)Nc2ccccc2Cc2ccccc2)CC(C)O1 (stereo not drawn) | 0
62 | c1cc2c(cc1Sc1nc(CN3CCOCC3)nc3sc4c(c13)CCC4)OCCO2 | 6
63 | CCC(=O)c1ccc(OC(=O)N2CCOCC2)cc1 | 0
64 | c1coc(CNc2nc(N3CCOCC3)nc3ccccc23)c1 | 2
65 | O=C(COc1ccc(Cl)cc1)Nc1ccccc1C(=O)N1CCOCC1 | 20
66 | CC1CN(c2ccc([N+](=O)[O-])nc2)CC(c2ccsc2)O1 (stereo not drawn) | 55
67 | CC(CNC(=O)N1CCCCC1c1cccn1C)CN1CCOCC1 (stereo not drawn) | 65
68 | COc1ccc(OC)c2c1CN(c1nc(CN3CCOCC3)nc3sc(C)c(C)c13)CC2O (stereo not drawn) | 42
69 | COCC(C)Nc1ccc(N2CCOC(C)(C)C2)cc1OC (stereo not drawn) | 7
70 | CCC(CC)C(CNC(=O)c1cc(C)nc2onc(C)c12)N1CCOCC1 (stereo not drawn) | 7
71 | CCc1ccc(C(C)NCC2(N3CCOCC3)CCSC2)o1 (stereo not drawn) | 151
72 | Cc1cccc(N2CCOC3(CCCC3)C2)n1 | 25
73 | Cc1ccc(C(CN2CCOCC2)NC(=O)c2cc(-c3ccccc3)[nH]n2)cc1 (stereo not drawn) | 0
74 | CC1(C)CN(c2snc(Cl)c2C#N)CCO1 | 0
75 | O=C1C(=O)N(C2CCCC2)C(=O)N1Cc1cccc(S(=O)(=O)N2CCOCC2)c1 | 9
